Our source for the IC50 values is US6514981B1, “Methods of modulating tyrosine protein kinase function with indolinone compounds” (Sugen, Inc., priority 1998, dated 2003).

SMILES strings stand for the structures.

Format in all cases: cell-based
The subject of experiment [1] is HUV-EC-C cells. Put plainly: HUV-EC-C assay (3H-thymidine), VEGF. Particulars: Homo sapiens, 3H-thymidine incorporation, HUVEC. The procedure:
(§1) The following protocol may also be used to measure a compound's activity against PDGF-R, FGF-R or Flk-1/KDR, all of which are naturally expressed by HUV-EC cells. 1. Wash and trypsinize HUV-EC-C cells (human umbilical vein endothelial cells, (American Type Culture Collection; catalogue no. 1730 CRL). Wash with Dulbecco's phosphate-buffered saline (D-PBS; obtained from Gibco BRL, catalogue no. 14190-029) 2 times at about 1 mL/10 CM^2 of tissue culture flask. Trypsinize with 0.05% trypsin-EDTA in non-enzymatic cell dissociation solution (Sigma Chemical Company; catalogue no. C-1544). The 0.05% trypsin was made by diluting 0.25% trypsin/1 mM EDTA (Gibco; catalogue no. 25200-049) in the cell dissociation solution. Trypsinize with about 1 mL/25-30 cm^2 of tissue culture flask for about 5 minutes at 37° C. After cells have detached from the flask, add an equal volume of assay medium and transfer to a 50 mL sterile centrifuge tube (Fisher Scientific; catalogue no. 05-539-6). 2. Wash the cells with about 35 mL assay medium in the 50 mL sterile centrifuge tube by adding the assay medium, centrifuge for 10 minutes at approximately 200×g aspirate the supernatant and resuspend with 35 mL D-PBS. Repeat the wash two more times with D-PBS, resuspend the cells in about 1 mL assay medium/15 cm^2 of tissue culture flask. […]
In general terms: Uptake of a labelled nucleoside into DNA is a usual measure of proliferation.

The target of the next experiment is human FLK-1 (Homo sapiens, UniProt P35968). Briefly: FLK-1 receptor phosphorylation assay in cells (ELISA). The settings on record: NIH3T3 C7#3 cells, VEGF stimulation. In general terms: ELISA stands for enzyme-linked immunosorbent assay.
Experiment [2] deals with HUV-EC-C cells. Put plainly: HUV-EC-C assay (3H-thymidine), aFGF. The settings on record: Homo sapiens, 3H-thymidine incorporation, HUVEC. As to the method: as §1
For the next experiment, the system named is 3T3EGFR. Briefly: BrdU incorporation assay, 3T3EGFR, EGF.

The IC50 is the point on the concentration scale where inhibition reaches its midpoint. A higher IC50 goes with weaker potency in that assay. On to `Cc1cc(/C=C2/C(=O)Nc3ccccc32)c(C)c2c1[nH]c1ccccc12` [VI], for which the IC50 in the experiment on HUV-EC-C cells [1] was 0.68 µM; on human FLK-1 it was 4840 nM; in the experiment on HUV-EC-C cells [2], 0.63 µM; in the experiment on 3T3EGFR it was 7.03 µM.
